From paper PMC12477080, “Polychlorinated biphenyls (PCBs) interact with drug metabolism in vivo” (Archives of Toxicology, 2025)

Assay: Stability of substrates and metabolites in quality control samples (benchtop, autosampler, freeze-thaw)
Format: physicochemical
Conditions: for Autosampler stability (24 h) Av. Accuracy (%): 10° C for 24 hours in the autosampler; for 3x freeze-thaw Av. Accuracy (%): after three freeze-thaw cycles; for Benchtop stability (19 h) Ac. Accuracy (%): room temperature for 19 hours
Text: The method was validated for intra- and interday accuracy and precision, stability, and matrix effects. […] Validation details are provided in Supplementary Tables 5–7 and supplemental Fig. 3. Glucuronidase/sulfatase digests were used to isolate CYP-specific metabolic activities, reducing interference from polymorphic UDP-glucuronosyltransferase (UGT) and sulfotransferase isoforms.
Supplemental table 6: Stability of the substrates and metabolites. Quality control samples were left at room temperature for 19 hours (benchtop stability) and at 10° C for 24 hours in the autosampler (autosampler stability) or were measured after three freeze-thaw cycles. Stability samples were measured against a freshly prepared set of calibrators and quality control samples.

OCc1ncc2n1-c1ccc(Cl)cc1C(c1ccccc1F)=NC2 [1-OH-midazolam]
Autosampler stability (24 h) Av. Accuracy (%) (QC conc. 0,2 ng/ml): 102,59%
3x freeze-thaw Av. Accuracy (%) (QC conc. 0,2 ng/ml): 108,6%
Benchtop stability (19 h) Ac. Accuracy (%) (QC conc. 0,2 ng/ml): 82,15%
Autosampler stability (24 h) Av. Accuracy (%) (QC conc. 0,6 ng/ml): 107,25%
3x freeze-thaw Av. Accuracy (%) (QC conc. 0,6 ng/ml): 109,36%
Benchtop stability (19 h) Ac. Accuracy (%) (QC conc. 0,6 ng/ml): 102,06%
Autosampler stability (24 h) Av. Accuracy (%) (QC conc. 24 ng/ml): 113,74%
3x freeze-thaw Av. Accuracy (%) (QC conc. 24 ng/ml): 106,45%
Benchtop stability (19 h) Ac. Accuracy (%) (QC conc. 24 ng/ml): 112,46%
Autosampler stability (24 h) Av. Accuracy (%) (QC conc. 60 ng/ml): 105,87%
3x freeze-thaw Av. Accuracy (%) (QC conc. 60 ng/ml): 100,47%
Benchtop stability (19 h) Ac. Accuracy (%) (QC conc. 60 ng/ml): 105,11%

COc1ccc2nc([S+]([O-])Cc3ncc(CO)c(OC)c3C)[nH]c2c1 (stereo not shown) [5-OH-omeprazole]
Autosampler stability (24 h) Av. Accuracy (%) (QC conc. 0,5 ng/ml): 112,52%
3x freeze-thaw Av. Accuracy (%) (QC conc. 0,5 ng/ml): 105,73%
Benchtop stability (19 h) Ac. Accuracy (%) (QC conc. 0,5 ng/ml): 95,94%
Autosampler stability (24 h) Av. Accuracy (%) (QC conc. 0,25 ng/ml): 90,94%
3x freeze-thaw Av. Accuracy (%) (QC conc. 0,25 ng/ml): 101,98%
Benchtop stability (19 h) Ac. Accuracy (%) (QC conc. 0,25 ng/ml): 99,1%
Autosampler stability (24 h) Av. Accuracy (%) (QC conc. 60 ng/ml): 104,61%
3x freeze-thaw Av. Accuracy (%) (QC conc. 60 ng/ml): 99,23%
Benchtop stability (19 h) Ac. Accuracy (%) (QC conc. 60 ng/ml): 99,68%
Autosampler stability (24 h) Av. Accuracy (%) (QC conc. 150 ng/ml): 97,73%
3x freeze-thaw Av. Accuracy (%) (QC conc. 150 ng/ml): 100,57%
Benchtop stability (19 h) Ac. Accuracy (%) (QC conc. 150 ng/ml): 92,79%
Autosampler stability (24 h) Av. Accuracy (%) (QC conc. 1,5 ng/ml): 102,58%
3x freeze-thaw Av. Accuracy (%) (QC conc. 1,5 ng/ml): 103,03%
Benchtop stability (19 h) Ac. Accuracy (%) (QC conc. 1,5 ng/ml): 98,98%

O=C1Nc2c(O)cc(Cl)cc2[C@@](C#CC2CC2)(C(F)(F)F)O1 [8-OH-efavirenz]
Autosampler stability (24 h) Av. Accuracy (%) (QC conc. 0,5 ng/ml): 86,73%
3x freeze-thaw Av. Accuracy (%) (QC conc. 0,5 ng/ml): 84,9%
Benchtop stability (19 h) Ac. Accuracy (%) (QC conc. 0,5 ng/ml): 74,06%
Autosampler stability (24 h) Av. Accuracy (%) (QC conc. 0,25 ng/ml): 86,81%
3x freeze-thaw Av. Accuracy (%) (QC conc. 0,25 ng/ml): 84,61%
Benchtop stability (19 h) Ac. Accuracy (%) (QC conc. 0,25 ng/ml): 69,5%
Autosampler stability (24 h) Av. Accuracy (%) (QC conc. 60 ng/ml): 86,15%
3x freeze-thaw Av. Accuracy (%) (QC conc. 60 ng/ml): 79,98%
Benchtop stability (19 h) Ac. Accuracy (%) (QC conc. 60 ng/ml): 77,52%
Autosampler stability (24 h) Av. Accuracy (%) (QC conc. 150 ng/ml): 78,85%
3x freeze-thaw Av. Accuracy (%) (QC conc. 150 ng/ml): 77,49%
Benchtop stability (19 h) Ac. Accuracy (%) (QC conc. 150 ng/ml): 74,14%
Autosampler stability (24 h) Av. Accuracy (%) (QC conc. 1,5 ng/ml): 88,49%
3x freeze-thaw Av. Accuracy (%) (QC conc. 1,5 ng/ml): 79,73%
Benchtop stability (19 h) Ac. Accuracy (%) (QC conc. 1,5 ng/ml): 76,61%

COCC(O)c1ccc(OCC(O)CNC(C)C)cc1 (stereo not shown) [OH-metoprolol]
Autosampler stability (24 h) Av. Accuracy (%) (QC conc. 0,5 ng/ml): 101,05%
3x freeze-thaw Av. Accuracy (%) (QC conc. 0,5 ng/ml): 95,27%
Benchtop stability (19 h) Ac. Accuracy (%) (QC conc. 0,5 ng/ml): 90,1%
Autosampler stability (24 h) Av. Accuracy (%) (QC conc. 0,25 ng/ml): 90,24%
3x freeze-thaw Av. Accuracy (%) (QC conc. 0,25 ng/ml): 85,17%
Benchtop stability (19 h) Ac. Accuracy (%) (QC conc. 0,25 ng/ml): 81,14%
Autosampler stability (24 h) Av. Accuracy (%) (QC conc. 60 ng/ml): 97,01%
3x freeze-thaw Av. Accuracy (%) (QC conc. 60 ng/ml): 91,98%
Benchtop stability (19 h) Ac. Accuracy (%) (QC conc. 60 ng/ml): 95,47%
Autosampler stability (24 h) Av. Accuracy (%) (QC conc. 150 ng/ml): 88,29%
3x freeze-thaw Av. Accuracy (%) (QC conc. 150 ng/ml): 87,96%
Benchtop stability (19 h) Ac. Accuracy (%) (QC conc. 150 ng/ml): 88,26%
Autosampler stability (24 h) Av. Accuracy (%) (QC conc. 1,5 ng/ml): 96,56%
3x freeze-thaw Av. Accuracy (%) (QC conc. 1,5 ng/ml): 95,33%
Benchtop stability (19 h) Ac. Accuracy (%) (QC conc. 1,5 ng/ml): 94,57%

CC(C)NC(=O)NS(=O)(=O)c1cnccc1Nc1cccc(CO)c1 [OH-torsemide]
Autosampler stability (24 h) Av. Accuracy (%) (QC conc. 1 ng/ml): 109,17%
3x freeze-thaw Av. Accuracy (%) (QC conc. 1 ng/ml): 105,26%
Benchtop stability (19 h) Ac. Accuracy (%) (QC conc. 1 ng/ml): 106,91%
Autosampler stability (24 h) Av. Accuracy (%) (QC conc. 2 ng/ml): 113,11%
3x freeze-thaw Av. Accuracy (%) (QC conc. 2 ng/ml): 105,85%
Benchtop stability (19 h) Ac. Accuracy (%) (QC conc. 2 ng/ml): 107,98%
Autosampler stability (24 h) Av. Accuracy (%) (QC conc. 6 ng/ml): 109,32%
3x freeze-thaw Av. Accuracy (%) (QC conc. 6 ng/ml): 107,78%
Benchtop stability (19 h) Ac. Accuracy (%) (QC conc. 6 ng/ml): 111,3%
Autosampler stability (24 h) Av. Accuracy (%) (QC conc. 240 ng/ml): 108,82%
3x freeze-thaw Av. Accuracy (%) (QC conc. 240 ng/ml): 104,11%
Benchtop stability (19 h) Ac. Accuracy (%) (QC conc. 240 ng/ml): 106,75%
Autosampler stability (24 h) Av. Accuracy (%) (QC conc. 600 ng/ml): 99,55%
3x freeze-thaw Av. Accuracy (%) (QC conc. 600 ng/ml): 96,28%
Benchtop stability (19 h) Ac. Accuracy (%) (QC conc. 600 ng/ml): 99,14%

Cn1c(=O)[nH]c2ncn(C)c2c1=O [Paraxanthine]
Autosampler stability (24 h) Av. Accuracy (%) (QC conc. 10 ng/ml): 96,28%
3x freeze-thaw Av. Accuracy (%) (QC conc. 10 ng/ml): 96,57%
Benchtop stability (19 h) Ac. Accuracy (%) (QC conc. 10 ng/ml): 89,99%
Autosampler stability (24 h) Av. Accuracy (%) (QC conc. 30 ng/ml): 105,74%
3x freeze-thaw Av. Accuracy (%) (QC conc. 30 ng/ml): 103,75%
Benchtop stability (19 h) Ac. Accuracy (%) (QC conc. 30 ng/ml): 105,38%
Autosampler stability (24 h) Av. Accuracy (%) (QC conc. 1200 ng/ml): 105,06%
3x freeze-thaw Av. Accuracy (%) (QC conc. 1200 ng/ml): 100,61%
Benchtop stability (19 h) Ac. Accuracy (%) (QC conc. 1200 ng/ml): 103,5%
Autosampler stability (24 h) Av. Accuracy (%) (QC conc. 3000 ng/ml): 93,91%
3x freeze-thaw Av. Accuracy (%) (QC conc. 3000 ng/ml): 92,32%
Benchtop stability (19 h) Ac. Accuracy (%) (QC conc. 3000 ng/ml): 94,2%

Cn1c(=O)c2c(ncn2C)n(C)c1=O [caffeine, reference compound]
3x freeze-thaw Av. Accuracy (%) (QC conc. 10 ng/ml): 107,62%
3x freeze-thaw Av. Accuracy (%) (QC conc. 30 ng/ml): 107,18%
3x freeze-thaw Av. Accuracy (%) (QC conc. 1200 ng/ml): 105,12%
3x freeze-thaw Av. Accuracy (%) (QC conc. 3000 ng/ml): 97,54%

O=C1Nc2ccc(Cl)cc2[C@@](C#CC2CC2)(C(F)(F)F)O1 [efavirenz, reference compound]
Autosampler stability (24 h) Av. Accuracy (%) (QC conc. 0,63 ng/ml): 109,58%
3x freeze-thaw Av. Accuracy (%) (QC conc. 0,63 ng/ml): 124,41%
Benchtop stability (19 h) Ac. Accuracy (%) (QC conc. 0,63 ng/ml): 92,21%
Autosampler stability (24 h) Av. Accuracy (%) (QC conc. 150 ng/ml): 115,3%
3x freeze-thaw Av. Accuracy (%) (QC conc. 150 ng/ml): 112,08%
Benchtop stability (19 h) Ac. Accuracy (%) (QC conc. 150 ng/ml): 111,5%
Autosampler stability (24 h) Av. Accuracy (%) (QC conc. 375 ng/ml): 106,16%
3x freeze-thaw Av. Accuracy (%) (QC conc. 375 ng/ml): 107,17%
Benchtop stability (19 h) Ac. Accuracy (%) (QC conc. 375 ng/ml): 104,9%
Autosampler stability (24 h) Av. Accuracy (%) (QC conc. 1,25 ng/ml): 114,46%
3x freeze-thaw Av. Accuracy (%) (QC conc. 1,25 ng/ml): 117,78%
Benchtop stability (19 h) Ac. Accuracy (%) (QC conc. 1,25 ng/ml): 102,48%
Autosampler stability (24 h) Av. Accuracy (%) (QC conc. 3,75 ng/ml): 114,56%
3x freeze-thaw Av. Accuracy (%) (QC conc. 3,75 ng/ml): 111,15%
Benchtop stability (19 h) Ac. Accuracy (%) (QC conc. 3,75 ng/ml): 107,06%

COCCc1ccc(OCC(O)CNC(C)C)cc1 (stereo not shown) [metoprolol, reference compound]
Autosampler stability (24 h) Av. Accuracy (%) (QC conc. 0,5 ng/ml): 105,36%
3x freeze-thaw Av. Accuracy (%) (QC conc. 0,5 ng/ml): 109,56%
Benchtop stability (19 h) Ac. Accuracy (%) (QC conc. 0,5 ng/ml): 106,29%
Autosampler stability (24 h) Av. Accuracy (%) (QC conc. 0,25 ng/ml): 105,01%
3x freeze-thaw Av. Accuracy (%) (QC conc. 0,25 ng/ml): 99,7%
Benchtop stability (19 h) Ac. Accuracy (%) (QC conc. 0,25 ng/ml): 92,77%
Autosampler stability (24 h) Av. Accuracy (%) (QC conc. 60 ng/ml): 111,39%
3x freeze-thaw Av. Accuracy (%) (QC conc. 60 ng/ml): 105,26%
Benchtop stability (19 h) Ac. Accuracy (%) (QC conc. 60 ng/ml): 110,41%
Autosampler stability (24 h) Av. Accuracy (%) (QC conc. 150 ng/ml): 100,37%
3x freeze-thaw Av. Accuracy (%) (QC conc. 150 ng/ml): 98,84%
Benchtop stability (19 h) Ac. Accuracy (%) (QC conc. 150 ng/ml): 102,76%
Autosampler stability (24 h) Av. Accuracy (%) (QC conc. 1,5 ng/ml): 112,83%
3x freeze-thaw Av. Accuracy (%) (QC conc. 1,5 ng/ml): 103,63%
Benchtop stability (19 h) Ac. Accuracy (%) (QC conc. 1,5 ng/ml): 111,4%
